From patent US7772241B2, “Variolin derivatives and their use as antitumor agents” (Pharma Mar S.A., priority 2001, dated 2010)
Like-named read-outs stand apart in the source and are kept apart here.

Key:
K-562 = assay: Inhibition of cells growth by colorimetric (SRB) assay, K-562
Outline: (§1)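 Read-out is sulforhodamine B protein stain (OD 490 nm) after cold TCA fixation, following 48 h continuous exposure to samples spanning 10 to 10^−8 μg/ml.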

A-549 = assay: Inhibition of cells growth by colorimetric (SRB) assay, A-549; settings: for GI50 / CC50: Homo sapiens, A549, 48 h; for GI50: read-out: A-549 GI50, SRB assay, 48 hours exposure; for A-549 TGI: SRB assay, 48 hours exposure
Outline: as §1

SK-MEL-28 = assay: Inhibition of cells growth by colorimetric (SRB) assay, SK-MEL-28; settings: for GI50 / CC50: Homo sapiens, SK-MEL-28, 48 h; for GI50: read-out: MEL-28 GI50, SRB assay, 48 hours exposure; for MEL-28 TGI: SRB assay, 48 hours exposure
Outline: as §1

HT-29 = assay: Inhibition of cells growth by colorimetric (SRB) assay, HT-29; settings: for GI50 / CC50: Homo sapiens, HT-29, 48 h; for GI50: read-out: HT-29 GI50, SRB assay, 48 hours exposure; for HT-29 TGI: SRB assay, 48 hours exposure
Outline: as §1

LoVo = assay: Inhibition of cells growth by colorimetric (SRB) assay, LoVo; settings: for GI50 / CC50: Homo sapiens, LoVo, 48 h; for GI50: read-out: LOVO GI50, SRB assay, 48 hours exposure; for LOVO TGI: SRB assay, 48 hours exposure
Outline: as §1

LoVo-Dox = assay: Inhibition of cells growth by colorimetric (SRB) assay, LoVo-Dox; settings: for GI50 / CC50: Homo sapiens, 48 h; for GI50: read-out: LOVO-DOX GI50, SRB assay, 48 hours exposure; for LOVO-DOX TGI: SRB assay, 48 hours exposure
Outline: as §1

DU-145 = assay: Inhibition of cells growth by colorimetric (SRB) assay, DU-145; settings: for GI50 / CC50: Homo sapiens, DU-145, 48 h; for GI50: read-out: DU-145 GI50, SRB assay, 48 hours exposure; for DU-145 TGI: SRB assay, 48 hours exposure
Outline: as §1

LNCaP = assay: Inhibition of cells growth by colorimetric (SRB) assay, LNCaP
Outline: as §1

SK-BR-3 = assay: Inhibition of cells growth by colorimetric (SRB) assay, SK-BR-3; settings: for GI50 / CC50: Homo sapiens, SK-BR-3, 48 h; for GI50: read-out: SK-BR-3 GI50, SRB assay, 48 hours exposure; for SK-BR-3 TGI: SRB assay, 48 hours exposure
Outline: as §1

IGROV-1 = assay: Inhibition of cells growth by colorimetric (SRB) assay, IGROV-1; settings: for GI50 / CC50: Homo sapiens, IGROV-1, 48 h; for GI50: read-out: IGROV GI50, SRB assay, 48 hours exposure; for IGROV TGI: SRB assay, 48 hours exposure
Outline: as §1

IGROV-ET = assay: Inhibition of cells growth by colorimetric (SRB) assay, IGROV-ET; settings: for GI50 / CC50: Homo sapiens, 48 h; for GI50: read-out: IGROV-ET GI50, SRB assay, 48 hours exposure; for IGROV-ET TGI: SRB assay, 48 hours exposure
Outline: as §1

HeLa = assay: Inhibition of cells growth by colorimetric (SRB) assay, HeLa; settings: for GI50: Homo sapiens, HeLa, 48 h, read-out: HELA GI50, SRB assay, 48 hours exposure; for HELA TGI: SRB assay, 48 hours exposure
Description: (§2) The finality of these assays is to interrupt the growth of a “in vitro” tumor cell culture by means a continued exhibition of the cells to the sample to be testing.
(§3) This form of the assay employs 96 well cell culture microplates of 9 mm diameter (Faircloth, 1988; Mosmann, 1983). Most of the cell lines are obtained from American Type Culture Collection (ATCC) derived from different human cancer types.
(§4) Cells are maintained in RPMI 1640 10% FBS, supplemented with 0.1 g/l penicillin and 0.1 g/l streptomycin sulphate and then incubated at 37° C., 5% CO2 and 98% humidity. For the experiments, cells were harvested from subconfluent cultures using trypsin and resuspended in fresh medium before plating.
(§5) Cells are seeded in 96 well microtiter plates, at 5×10^3 cells per well in aliquots of 195 μl medium, and they are allowed to attach to the plate surface by growing in drug free medium for 18 hours. Afterward, samples are added in aliquots of 5 μl in a ranging from 10 to 10^−8 μg/ml, dissolved in DMSO/EtOH/PBS (0.5:0.5:99). After 48 hours exposure, the antitumor effect are measured by the SRB methodology: cells are fixed by adding 50 μl of cold 50% (wt/vol) trichloroacetic acid (TCA) and incubating for 60 minutes at 4° C. Plates are washed with deionized water and dried. One hundred μl of SRB solution (0.4% wt/vol in 1% acetic acid) is added to each microtiter well and incubated for 10 minutes at room temperature. Unbound SRB is removed by washing with 1% acetic acid. Plates are air dried and bound stain is solubilized with Tris buffer. Optical densities are read on a automated spectrophotometric plate reader at a single wavelength of 490 nm.
(§6) The values for mean +/−SD of data from triplicate wells are calculated. Some parameters for cellular responses can be calculated: GI=growth inhibition, TGI=total growth inhibition (cytostatic effect) and LC=cell killing (cytotoxic effect).

HeLa-APL = assay: Inhibition of cells growth by colorimetric (SRB) assay, HeLa-APL; settings: for GI50 / CC50: Homo sapiens, 48 h; for HELA-APL TGI: SRB assay, 48 hours exposure
Description: as §2, §3, §4, §5, §6

PANC-1 = assay: Inhibition of cells growth by colorimetric (SRB) assay, PANC-1; settings: for GI50 / CC50: Homo sapiens, PANC-1, 48 h; for GI50: read-out: PANC-1 GI50, SRB assay, 48 hours exposure; for PANC-1 TGI: SRB assay, 48 hours exposure
Outline: as §1

Which results are given for `Cl.Nc1nccc(-c2c3c(O)ccnc3n3c(N)nccc23)n1` [Compound 54]?
GI50 (K-562; Homo sapiens, K562, 48 h, read-out: K-562 GI50, SRB assay, 48 hours exposure): 1670 nM; CC50 (K-562; Homo sapiens, K562, 48 h, read-out: K-562 LC50): 27300 nM; K-562 TGI (K-562; SRB assay, 48 hours exposure): 1.44E−05; GI50 (A-549): 339 nM; CC50 (A-549; read-out: A-549 LC50): 27300 nM; A-549 TGI (A-549): 1.10E−06; GI50 (SK-MEL-28): 945 nM; CC50 (SK-MEL-28; read-out: MEL-28 LC50): 11400 nM; MEL-28 TGI (SK-MEL-28): 3.22E−06; GI50 (HT-29): 1690 nM; CC50 (HT-29; read-out: HT-29 LC50): 27300 nM; HT-29 TGI (HT-29): 8.71E−06; GI50 (LoVo): 266 nM; CC50 (LoVo; read-out: LOVO LC50): 27300 nM; LOVO TGI (LoVo): 1.04E−06; GI50 (LoVo-Dox): 155 nM; CC50 (LoVo-Dox; read-out: LOVO-DOX LC50): 27300 nM; LOVO-DOX TGI (LoVo-Dox): 7.32E−07; GI50 (DU-145): 360 nM; CC50 (DU-145; read-out: DU-145 LC50): 27300 nM; DU-145 TGI (DU-145): 1.32E−06; GI50 (LNCaP; Homo sapiens, LNCaP, 48 h, read-out: LN-caP GI50, SRB assay, 48 hours exposure): 287 nM; CC50 (LNCaP; Homo sapiens, LNCaP, 48 h, read-out: LN-caP LC50): 1820 nM; LN-caP TGI (LNCaP; SRB assay, 48 hours exposure): 7.24E−07; GI50 (SK-BR-3): 530 nM; CC50 (SK-BR-3; read-out: SK-BR-3 LC50): 2670 nM; SK-BR-3 TGI (SK-BR-3): 1.19E−06; GI50 (IGROV-1): 440 nM; CC50 (IGROV-1; read-out: IGROV LC50): 27300 nM; IGROV TGI (IGROV-1): 1.37E−06; GI50 (IGROV-ET): 421 nM; CC50 (IGROV-ET; read-out: IGROV-ET LC50): 27300 nM; IGROV-ET TGI (IGROV-ET): 1.48E−06; GI50 (HeLa): 57.3 nM; HELA TGI (HeLa): 1.17E−07; GI50 (HeLa-APL; read-out: HELA-APL GI50): 61.2 nM; CC50 (HeLa-APL; read-out: HELA-APL LC50): 270 nM; HELA-APL TGI (HeLa-APL): 1.28E−07; GI50 (PANC-1): 871 nM; CC50 (PANC-1; read-out: PANC-1 LC50): 27300 nM; PANC-1 TGI (PANC-1): 3.28E−06

With `CSc1nccc(-c2c3c(Cl)ccnc3n3c(N)nccc23)n1.Cl` [Compound 108] as the compound, how does the GI50 (A-549) read?
The GI50 was 2020 nM.

And the CC50 (A-549; read-out: A-549 LC50, SRB assay, 48 hours exposure)?
The CC50 was 26400 nM.

What about the “A-549 TGI” value (A-549) of the same compound?
The value was 2.16E−05.

And the GI50 (SK-MEL-28)?
The GI50 was 925 nM.

What about the CC50 (SK-MEL-28; read-out: MEL-28 LC50, SRB assay, 48 hours exposure) of the same compound?
The CC50 was 26400 nM.

What about the “MEL-28 TGI” value (SK-MEL-28) of the same compound?
Its value is 2.64E−05.

What about the GI50 (HT-29) of the same compound?
The GI50 was 701 nM.

And the CC50 (HT-29; read-out: HT-29 LC50, SRB assay, 48 hours exposure)?
The CC50 was 26400 nM.

And the “HT-29 TGI” value (HT-29)?
Its value is 2.64E−05.

What about the GI50 (LoVo) of the same compound?
The GI50 was 208 nM.

What about the CC50 (LoVo; read-out: LOVO LC50, SRB assay, 48 hours exposure) of the same compound?
The CC50 was 4850 nM.

And the “LOVO TGI” value (LoVo)?
The value was 7.57E−07.

And the GI50 (LoVo-Dox)?
Its GI50 is 680 nM.

What about the CC50 (LoVo-Dox; read-out: LOVO-DOX LC50, SRB assay, 48 hours exposure) of the same compound?
Its CC50 is 26400 nM.

What about the “LOVO-DOX TGI” value (LoVo-Dox) of the same compound?
The value was 1.61E−06.

What about the GI50 (DU-145) of the same compound?
The GI50 was 1500 nM.

And the CC50 (DU-145; read-out: DU-145 LC50, SRB assay, 48 hours exposure)?
The CC50 was 26400 nM.

What about the “DU-145 TGI” value (DU-145) of the same compound?
Its value is 2.64E−05.

And the GI50 (SK-BR-3)?
The GI50 was 5620 nM.

What about the CC50 (SK-BR-3; read-out: SK-BR-3 LC50, SRB assay, 48 hours exposure) of the same compound?
The CC50 was 26400 nM.

What about the “SK-BR-3 TGI” value (SK-BR-3) of the same compound?
Its value is 1.60E−05.

And the GI50 (IGROV-1)?
The GI50 was 2330 nM.

What about the CC50 (IGROV-1; read-out: IGROV LC50, SRB assay, 48 hours exposure) of the same compound?
Its CC50 is 26400 nM.

What about the “IGROV TGI” value (IGROV-1) of the same compound?
The value was 2.64E−05.

What about the GI50 (IGROV-ET) of the same compound?
Its GI50 is 11300 nM.

And the CC50 (IGROV-ET; read-out: IGROV-ET LC50, SRB assay, 48 hours exposure)?
The CC50 was 26400 nM.

And the “IGROV-ET TGI” value (IGROV-ET)?
Its value is 2.64E−05.

What about the GI50 (HeLa) of the same compound?
The GI50 was 7.51 nM.

What about the “HELA TGI” value (HeLa) of the same compound?
The value was 1.15E−07.

What about the GI50 (HeLa-APL; read-out: HELA-APL GI50, SRB assay, 48 hours exposure) of the same compound?
Its GI50 is 9.54 nM.

And the CC50 (HeLa-APL; read-out: HELA-APL LC50, SRB assay, 48 hours exposure)?
Its CC50 is 26400 nM.

What about the “HELA-APL TGI” value (HeLa-APL) of the same compound?
Its value is 2.04E−07.

What about the GI50 (PANC-1) of the same compound?
The GI50 was 3370 nM.

And the CC50 (PANC-1; read-out: PANC-1 LC50, SRB assay, 48 hours exposure)?
Its CC50 is 26400 nM.

And the “PANC-1 TGI” value (PANC-1)?
The value was 2.64E−05.
